Active and inactive are the calls of the source. The rule behind the calls is not given here.
Legend:
[1] = species on record: Homo sapiens; test: Inhibition of N-terminal HSP90 (unknown origin) at 10 uM by AlphaLISA assay
[2] = test system: BT-474; test: Antiproliferative activity against human BT-474 cells assessed as inhibition of cell viability at 10 uM measured after 72 hrs by CellTiter 96 Aqueous One Solution Cell Proliferation Assay; type: functional, cell-based
[3] = test system: HEK293; test: Cytotoxicity against HEK293 cells assessed as reduction in cell viability at 10 uM measured after 72 hrs by CellTiter 96 Aqueous One Solution Cell Proliferation Assay; type: toxicity, cell-based; conditions: human, hek293, 72 h
[4] = test system: JIMT-1; test: Antiproliferative activity against human JIMT-1 cells assessed as inhibition of cell viability at 10 uM measured after 72 hrs by CellTiter 96 Aqueous One Solution Cell Proliferation Assay; type: functional, cell-based

| inhibition [1] | Compound | Activity [2] | Activity [3] | Activity [4] |
| --- | --- | --- | --- | --- |
| inactive | CO[C@@H]1[C@@H](OC(N)=O)[C@@H](O)[C@H](Oc2ccc3c(O)c(NC(=O)c4ccc(O)c(CC=C(C)C)c4)c(=O)oc3c2C)OC1(C)C | – | – | – |
| Active | CC(C)c1cc(-c2n[nH]c(=O)n2-c2ccc3c(ccn3C)c2)c(O)cc1O | – | – | – |
| – | COCCn1cc(NC(=O)c2ccc3c(c2OC)C=CC(C)(C)O3)c2cncnc21 | Active | Toxic | Active |
